Source: patent US20140371069A1, “Short-Chain Alkyl Sulfonates in Pesticide Formulations and Applications” (priority 2011, published 2014)
Where two headings read alike, the source gives them in different places.

What was measured:
[1] = Stability of pesticide formulation containing glufosinate-ammonium and C8 ether sulfate at 1:1 weight ratio with test hydrotrope
Source text: Specifically, the pesticide active in the pesticide formulation is glufosinate-ammonium and the adjuvant is C8 ether sulfate.

[2] = Separation of the formulations after one freeze/thaw cycle (ternary diagram); format: physicochemical; details: FIG. 2 versus FIG. 4
Protocol: The formulations listed in Example 1 were subjected to a freeze/thaw cycle in which the formulations were frozen and thawed to room temperature. The stability of the formulations was then assessed. FIG. 2 illustrates the results of the assessment. FIG. 2 is a ternary diagram showing regions of varying percentages of separation after one freeze/thaw cycle of the formulations.
A freeze/thaw cycle changes the solubility of some of the components, therefore, by subjecting the formulations to a freeze/thaw cycle, the effect of the solubility change on the stability of the formulations can be assessed.
The formulations listed in Comparative Example 1 were subjected to a freeze/thaw cycle and the stability of the formulations was subsequently assessed. FIG. 4 illustrates the results of the assessment. FIG. 4 is a ternary diagram showing regions of varying percentages of separation after one freeze/thaw cycle of the formulations.

[3] = Separation of the formulations on standing at room temperature (ternary diagram); format: physicochemical; details: for region of stability (blue region) in ternary diagram of percentage of separation: glufosinate ammonium 25.8%, C8 ether sulfate 30.6%, hydrotrope 0-10%, propylene glycol 0-15% w/w
Protocol: A design experiment was performed in which pesticide formulations containing the following were prepared: [table] The formulations were allowed to sit for 24 hours at room temperature and the stability of the formulations was assessed. FIG. 1 illustrates the results of the experiment. FIG. 1 is a ternary diagram showing regions of varying percentages of separation after 24 hours at room temperature of the formulations containing the above-listed components. The numbers associated with the small colored bar in the upper left hand corner of the figure indicate the percentage of separation in the samples. The colors in the bar correspond to the colored regions in the ternary diagram. […] An experiment was performed in which pesticide formulations containing the following were prepared: [table] The formulations were allowed to sit for two hours at room temperature and the stability of the formulations was assessed. FIG. 3 illustrates the results of the experiment. FIG. 3 is a ternary diagram showing regions of varying percentages of separation after two hours at room temperature of the formulations containing the above-listed components.

[4] = glufosinate-ammonium and C8 ether sulfate at 1:1 weight ratio
[5] = after 24 hours at room temperature, FIG. 1

| Compound | stability of the pesticide formulation containing the material as hydrotrope [1] | stability of the pesticide formulation containing the material as hydrotrope [1, 4] | other results |
| --- | --- | --- | --- |
| COC(C)COC(C)CO (stereo not drawn) [dipropylene glycol monomethyl ether] | developed two phases that separated very quickly |  |  |
| CC(O)CO (stereo not drawn) [propylene glycol] |  | developed two phases that separated very quickly |  |
| CC(C)c1ccc(S(=O)(=O)[O-])cc1.[Na+] [sodium cumene sulfonate] |  | developed two phases that separated very quickly |  |
| CCCCCCCCS(=O)(=O)[O-].[Na+] [sodium octane sulfonate] |  |  | effectiveness as a hydrotrope compared with sodium xylene sulfonate [2]: more effective as a hydrotrope than sodium xylene sulfonate; effectiveness as a hydrotrope in the formulations [3, 5]: effective as a hydrotrope; region of stability (blue region) in ternary diagram of percentage of separation [3, 5]: large; effectiveness as a hydrotrope compared with sodium xylene sulfonate ([3]; room temperature, FIG. 1 (24 hours) versus FIG. 3 (two hours)): significantly more effective as a hydrotrope than sodium xylene sulfonate |
| C4 alcohol+2EO sulfate ester sodium salt | developed two phases that separated very quickly |  |  |
| C4 alcohol+4EO sulfate esters sodium salt | developed two phases that separated very quickly |  |  |
| C6 alcohol+4EO sodium salt | developed two phases that separated very quickly |  |  |
| sodium xylene sulfonate |  | developed two phases that separated very quickly | region of stability (blue region) in ternary diagram of percentage of separation ([3]; after two hours at room temperature, FIG. 3): small |
